In one test the test system is SW837. Kind of test: combination cScore with sotorasib (Bliss gap around IC50) (%PoC); higher = stronger additive effect. The procedure, abridged:
(§1)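 The score averages the gap between expected and measured viability under Bliss independence, taken over a field around the IC50 of each single agent or, where an IC50 was not reached, at the highest concentrations. Viability came from CellTiter-Glo luminescence, normalised to vehicle wells as percent of control and fitted with four-parameter curves. NCI-H2122, NCI-H358 and SW837 cells were dosed in concentration matrices 24 h after seeding and grown for 72 h, or 144 h for SW837.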

The test system of another test is NCI-H2122. The description is as above. In a few lines:
as §1

Each structure is given as a SMILES string.

On to `CC(=O)O[C@@]12CO[C@@H]1C[C@H](O)[C@@]1(C)C(=O)[C@H](O)C3=C(C)[C@@H](OC(=O)[C@H](O)[C@@H](NC(=O)OC(C)(C)C)c4ccccc4)C[C@@](O)([C@@H](OC(=O)c4ccccc4)[C@H]21)C3(C)C` [Docetaxel] + C=CC(=O)N1CCN(c2nc(=O)n(-c3c(C)ccnc3C(C)C)c3nc(-c4c(O)cccc4F)c(F)cc23)[C@@H](C)C1 [sotorasib], for which the figures for the “combination cScore with sotorasib” value in the test on SW837 and with NCI-H2122 were 3.98 and 1.66, respectively.

In the case of `CS(=O)(=O)c1ccc(C(=O)Nc2ccc(Cl)c(-c3ccccn3)c2)c(Cl)c1` [Vismodegib] + C=CC(=O)N1CCN(c2nc(=O)n(-c3c(C)ccnc3C(C)C)c3nc(-c4c(O)cccc4F)c(F)cc23)[C@@H](C)C1 [sotorasib], the figures for the “combination cScore with sotorasib” value in the test on SW837 and in the test with NCI-H2122 were 9.42 and 12.1, respectively.

For `CN[C@H]1CN(c2ccc3c(=O)c(C(=O)O)cn(-c4nccs4)c3n2)C[C@@H]1OC` [Vosaroxin] + C=CC(=O)N1CCN(c2nc(=O)n(-c3c(C)ccnc3C(C)C)c3nc(-c4c(O)cccc4F)c(F)cc23)[C@@H](C)C1 [sotorasib], the “combination cScore with sotorasib” value with SW837 worked out at 13.2; in the test on NCI-H2122 it was 13.3.

As for `COc1cc(Nc2ncc3c(n2)-c2ccc(Cl)cc2C(c2c(F)cccc2OC)=NC3)ccc1C(=O)O` [MLN8237] + C=CC(=O)N1CCN(c2nc(=O)n(-c3c(C)ccnc3C(C)C)c3nc(-c4c(O)cccc4F)c(F)cc23)[C@@H](C)C1 [sotorasib], the “combination cScore with sotorasib” value was 10.3 in the test on SW837 and -3.51 in the test on NCI-H2122.

Regarding `CCc1cccc(CC)c1NC(=O)c1nn(C)c2c1CCc1cnc(Nc3ccc(C(=O)NC4CCN(C)CC4)cc3OC(F)(F)F)nc1-2` [NMS-P715] + C=CC(=O)N1CCN(c2nc(=O)n(-c3c(C)ccnc3C(C)C)c3nc(-c4c(O)cccc4F)c(F)cc23)[C@@H](C)C1 [sotorasib], the “combination cScore with sotorasib” value worked out at 13.2 with SW837 and 2.28 with NCI-H2122.

With `C[C@]1(c2nc3c(C(N)=O)cccc3[nH]2)CCCN1` [Veliparib] + C=CC(=O)N1CCN(c2nc(=O)n(-c3c(C)ccnc3C(C)C)c3nc(-c4c(O)cccc4F)c(F)cc23)[C@@H](C)C1 [sotorasib], the “combination cScore with sotorasib” value with SW837 stood at 7.52; in the test with NCI-H2122 it was 18.6.

For the molecule `COc1ccc(Cn2ccc3ccc(C(=O)NO)cc32)cc1` + C=CC(=O)N1CCN(c2nc(=O)n(-c3c(C)ccnc3C(C)C)c3nc(-c4c(O)cccc4F)c(F)cc23)[C@@H](C)C1 [sotorasib], the figures for the “combination cScore with sotorasib” value in the test on SW837 and in the test on NCI-H2122 were 10.9 and 0.89, respectively.

As for `C/C=C1\NC(=O)[C@H]2CSSCC/C=C/[C@H](CC(=O)N[C@H](C(C)C)C(=O)N2)OC(=O)[C@H](C(C)C)NC1=O` [Romidepsin] + C=CC(=O)N1CCN(c2nc(=O)n(-c3c(C)ccnc3C(C)C)c3nc(-c4c(O)cccc4F)c(F)cc23)[C@@H](C)C1 [sotorasib], the “combination cScore with sotorasib” value in the test with SW837 was found to be 12.7; in the test with NCI-H2122, 5.9.

Take `CC1(C)CCC(CN2CCN(c3ccc(C(=O)NS(=O)(=O)c4ccc(NCC5CCOCC5)c([N+](=O)[O-])c4)c(Oc4cnc5[nH]ccc5c4)c3)CC2)=C(c2ccc(Cl)cc2)C1` [ABT-199] + C=CC(=O)N1CCN(c2nc(=O)n(-c3c(C)ccnc3C(C)C)c3nc(-c4c(O)cccc4F)c(F)cc23)[C@@H](C)C1 [sotorasib]: the “combination cScore with sotorasib” value is -2.18 in the test on SW837 and 11.2 in the test on NCI-H2122.

As for `CC(C)NC[C@@H](C(=O)N1CCN(c2ncnc3c2[C@H](C)C[C@H]3O)CC1)c1ccc(Cl)cc1` [Ipatasertib] + C=CC(=O)N1CCN(c2nc(=O)n(-c3c(C)ccnc3C(C)C)c3nc(-c4c(O)cccc4F)c(F)cc23)[C@@H](C)C1 [sotorasib], the entries for the “combination cScore with sotorasib” value with SW837 and in the test on NCI-H2122 were 11.4 and 12.3, respectively.

On to `CN1CCN(c2ccc(-c3cccc(CN4CCOCC4)c3)cc2NC(=O)c2c[nH]c(=O)cc2C(F)(F)F)CC1` [OICR-9429] + C=CC(=O)N1CCN(c2nc(=O)n(-c3c(C)ccnc3C(C)C)c3nc(-c4c(O)cccc4F)c(F)cc23)[C@@H](C)C1 [sotorasib], for which the “combination cScore with sotorasib” value in the test with SW837 is 3.36; in the test with NCI-H2122, 9.62.

As to `CNC(=O)c1cc(Oc2ccc(NC(=O)Nc3ccc(Cl)c(C(F)(F)F)c3)cc2)ccn1` [Sorafenib] + C=CC(=O)N1CCN(c2nc(=O)n(-c3c(C)ccnc3C(C)C)c3nc(-c4c(O)cccc4F)c(F)cc23)[C@@H](C)C1 [sotorasib], the figures for the “combination cScore with sotorasib” value in the test with SW837 and with NCI-H2122 were -8.41 and 4.75, respectively.

Consider `O=C(/C=C\n1cnc(-c2cc(C(F)(F)F)cc(C(F)(F)F)c2)n1)NNc1cnccn1` [KPT-330] + C=CC(=O)N1CCN(c2nc(=O)n(-c3c(C)ccnc3C(C)C)c3nc(-c4c(O)cccc4F)c(F)cc23)[C@@H](C)C1 [sotorasib], for which the “combination cScore with sotorasib” value in the test with SW837 was found to be 0.325; in the test on NCI-H2122, 3.63.

As to `C[C@]12CC[C@@H]3c4ccc(O)cc4C[C@@H](CCCCCCCCC[S+]([O-])CCCC(F)(F)C(F)(F)F)[C@H]3[C@@H]1CC[C@@H]2O` (some centres not stated) [Fulvestrant] + C=CC(=O)N1CCN(c2nc(=O)n(-c3c(C)ccnc3C(C)C)c3nc(-c4c(O)cccc4F)c(F)cc23)[C@@H](C)C1 [sotorasib], the figures for the “combination cScore with sotorasib” value in the test with SW837 and with NCI-H2122 were 1.95 and 8.41, respectively.

As to `C[C@@H]1C[C@H]2[C@@H]3CCC4=CC(=O)C=C[C@]4(C)[C@@]3(F)[C@@H](O)C[C@]2(C)[C@@]1(O)C(=O)CO` [Dexamethasone] + C=CC(=O)N1CCN(c2nc(=O)n(-c3c(C)ccnc3C(C)C)c3nc(-c4c(O)cccc4F)c(F)cc23)[C@@H](C)C1 [sotorasib], the “combination cScore with sotorasib” value with SW837 was -13.1; in the test with NCI-H2122, -0.78.

On to `COc1ncc(-c2nc3c(n2C(C)C)[C@H](c2ccc(Cl)cc2)N(c2cc(Cl)cn(C)c2=O)C3=O)c(OC)n1` [HDM-201] + C=CC(=O)N1CCN(c2nc(=O)n(-c3c(C)ccnc3C(C)C)c3nc(-c4c(O)cccc4F)c(F)cc23)[C@@H](C)C1 [sotorasib], for which the “combination cScore with sotorasib” value with SW837 is 7.32; with NCI-H2122, 1.73.

On to `CC(C)(C)c1cc(NC(=O)Nc2ccc(-c3cn4c(n3)sc3cc(OCCN5CCOCC5)ccc34)cc2)no1` [Quizartinib] + C=CC(=O)N1CCN(c2nc(=O)n(-c3c(C)ccnc3C(C)C)c3nc(-c4c(O)cccc4F)c(F)cc23)[C@@H](C)C1 [sotorasib], for which the “combination cScore with sotorasib” value in the test on SW837 is -4.13; in the test with NCI-H2122, -1.22.

As for `CNC(=O)c1ccc(N2C(=S)N(c3ccc(C#N)c(C(F)(F)F)c3)C(=O)C2(C)C)cc1F` [Enzalutamide] + C=CC(=O)N1CCN(c2nc(=O)n(-c3c(C)ccnc3C(C)C)c3nc(-c4c(O)cccc4F)c(F)cc23)[C@@H](C)C1 [sotorasib], the “combination cScore with sotorasib” value in the test on SW837 is 5.64; in the test on NCI-H2122, 6.62.

On to `CN(Cc1cnc2nc(N)nc(N)c2n1)c1ccc(C(=O)N[C@@H](CCC(=O)O)C(=O)O)cc1` [Methotrexate] + C=CC(=O)N1CCN(c2nc(=O)n(-c3c(C)ccnc3C(C)C)c3nc(-c4c(O)cccc4F)c(F)cc23)[C@@H](C)C1 [sotorasib], for which the figures for the “combination cScore with sotorasib” value in the test with SW837 and in the test on NCI-H2122 were -3.51 and -3.03, respectively.

For the molecule `CC(C)c1cc(-c2n[nH]c(=O)n2-c2ccc3c(ccn3C)c2)c(O)cc1O` [Ganetespib] + C=CC(=O)N1CCN(c2nc(=O)n(-c3c(C)ccnc3C(C)C)c3nc(-c4c(O)cccc4F)c(F)cc23)[C@@H](C)C1 [sotorasib], the “combination cScore with sotorasib” value is 7.55 in the test with SW837 and -1.8 in the test on NCI-H2122.

Turning to `CO[C@H]1CC[C@H](n2c([C@@H]3CCCC(=O)N3c3ccc(F)c(F)c3)nc3cc(-c4c(C)noc4C)ccc32)CC1` [CCS1477] + C=CC(=O)N1CCN(c2nc(=O)n(-c3c(C)ccnc3C(C)C)c3nc(-c4c(O)cccc4F)c(F)cc23)[C@@H](C)C1 [sotorasib], the results for the “combination cScore with sotorasib” value in the test on SW837 and in the test on NCI-H2122 were 11.8 and 13.8, respectively.

As to `CN1CC[C@H](c2c(O)cc(O)c3c(=O)cc(-c4ccccc4Cl)oc23)[C@H](O)C1` [Flavopiridol] + C=CC(=O)N1CCN(c2nc(=O)n(-c3c(C)ccnc3C(C)C)c3nc(-c4c(O)cccc4F)c(F)cc23)[C@@H](C)C1 [sotorasib], the “combination cScore with sotorasib” value was 1.46 with SW837 and 6.54 with NCI-H2122.

Regarding `C[C@H](Cc1ccc(O)c(O)c1)[C@@H](C)Cc1ccc(O)c(O)c1` [Masoprocol] + C=CC(=O)N1CCN(c2nc(=O)n(-c3c(C)ccnc3C(C)C)c3nc(-c4c(O)cccc4F)c(F)cc23)[C@@H](C)C1 [sotorasib], the “combination cScore with sotorasib” value with SW837 was 1.64; in the test on NCI-H2122, -1.02.

Consider `Cc1cc(Nc2nc(N[C@@H](C)c3ncc(F)cn3)ncc2Cl)[nH]n1` [AZD-1480] + C=CC(=O)N1CCN(c2nc(=O)n(-c3c(C)ccnc3C(C)C)c3nc(-c4c(O)cccc4F)c(F)cc23)[C@@H](C)C1 [sotorasib], for which the “combination cScore with sotorasib” value is -5.71 in the test on SW837 and 5.41 with NCI-H2122.

As for `CC(C)(C(=O)NCC(F)(F)C(F)(F)F)C(=O)N[C@@H]1C(=O)Nc2ccccc2-c2ccccc21` + C=CC(=O)N1CCN(c2nc(=O)n(-c3c(C)ccnc3C(C)C)c3nc(-c4c(O)cccc4F)c(F)cc23)[C@@H](C)C1 [sotorasib], the “combination cScore with sotorasib” value with SW837 came out at 21.5; in the test with NCI-H2122, 2.56.

For the molecule `Nc1nc(F)nc2c1ncn2[C@@H]1O[C@H](CO)[C@@H](O)[C@@H]1O` [Fludarabine] + C=CC(=O)N1CCN(c2nc(=O)n(-c3c(C)ccnc3C(C)C)c3nc(-c4c(O)cccc4F)c(F)cc23)[C@@H](C)C1 [sotorasib], the results for the “combination cScore with sotorasib” value in the test with SW837 and in the test with NCI-H2122 were -1.86 and 9.97, respectively.
